Experimental findings from PubChem BioAssay (NCI) are described below.

Values joined by “and” are separate entries in the source; they are usually repeats but may differ in a detail not shown here. Identical values can stand only once.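 Where inhibition never reached the appropriate level, the endpoint shown equals the highest concentration tested. Otherwise, values were interpolated linearly from a five-concentration, 48-hour dose response in 96-well plates. GI50 = concentration required for 50% inhibition of growth. Definition used: TGI = concentration required for complete inhibition of growth.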 A value given as a limit tells only on which side of the number the result lay.

Test in all cases: DTP human tumour cell line panel, 48 h
Test [1] relates to 786-0 renal.
In test [2] the test system is DU-145 prostate.
Test [3] relates to HCT-116 colon.
Test [4] relates to HCT-15 colon.
For test [5], the system named is LOX IMVI melanoma.
Test [6] relates to M14 melanoma.
The test system of test [7] is RPMI-8226 leukemia.
Test [8] has as its system SN12C renal.
The subject of test [9] is SNB-19 CNS.
Test [10] relates to SR leukemia.

For `Cc1ccc2c(c1)[n+](=O)c(C(=O)c1cccs1)c(C(F)(F)F)n2[O-]`, the GI50 in [1] is 4.85 µM and 1.05 µM; in test [2], 0.913 µM and 0.573 µM; in test [3], 2.47 µM and 0.731 µM; in [4], 0.753 µM and 0.618 µM; in test [5] it was 0.612 µM and 0.561 µM; in test [6], 2.99 µM and 4.32 µM. Further, the GI50 in test [7] is 1.54 µM and 0.356 µM; in test [8] it was 0.796 µM; in test [9], 2.24 µM and 3.91 µM; in test [10] it was 0.152 µM. The TGI was 50 µM and 12.4 µM in test [1]; 2.08 µM and 2.42 µM in test [2]; 50 µM and 15.9 µM in test [3]; 7 µM and 14.8 µM in [4]; 1.76 µM and 1.82 µM in test [5]; 50 µM and 26.2 µM in test [6]. Besides, the TGI in test [8] was 1.97 µM; in test [9], 11.2 µM and 17.8 µM; in [10] it was 50 µM.

Regarding `O=C(O)C1C2C=CC(O2)C1C(=O)NCc1cccnc1` (centres undefined), the TGI in test [1], in test [2], in [3], in test [4], in [5] and in test [6] was over 100 µM each time. For the same compound, the TGI in test [7], in test [8], in [9] and in test [10] was over 100 µM in each case.

As for `Cc1cc2c(cc1Cl)SC(N(c1ccccc1Cl)S(=O)(=O)c1ccc(Br)s1)=NS2(=O)=O`, the GI50 is 30 µM in [1]; 14.5 µM in test [2]; 16.5 µM in [3]; 15.5 µM in [4]; 12.1 µM in test [5]; 18.5 µM in [6]. For the same compound, the GI50 in [7] is 24.8 µM; in test [8], 19.5 µM; in test [9], 19.9 µM; in test [10] it was 23.8 µM. The TGI is over 100 µM in [1]; 33 µM in test [2]; 34.3 µM in [3]; 32.7 µM in test [4]; 25.5 µM in test [5]; 47.3 µM in [6]. Moreover, the TGI came out at 82.3 µM in test [7], 48.7 µM in test [8], 68.5 µM in test [9] and 83.4 µM in [10].

For the compound `Cc1cc(S(=O)(=O)/N=C(\N)Nc2cccc(O)c2)c(SCc2ccccc2)cc1Cl`, the GI50 in [1] was 16.9 µM; in test [2], 24.4 µM; in [3], 12.6 µM; in test [4] it was 18.6 µM; in test [5], 20.5 µM; in test [6] it was 11.1 µM. Besides, the GI50 was 5.81 µM in test [7], 17.6 µM in [8], 20.6 µM in [9] and 16.2 µM in test [10]. The TGI is 33.5 µM in [1]; 81.8 µM in [2]; 34 µM in test [3]; 48 µM in test [4]; 66.8 µM in test [5]; 26.7 µM in test [6]. Moreover, the TGI in test [7] was over 100 µM; in test [8], 38.2 µM; in test [9], 58.9 µM; in test [10] it was over 100 µM.

`Nc1nc(N)c2c(n1)NC(c1sc(Cl)nc1Cl)CC(c1ccccc1)=N2` (centres undefined): the GI50 in test [1] was 5.05 µM; in test [2] it was 11.2 µM; in [3], 3.7 µM; in test [4], 3.05 µM; in test [5], 5.39 µM; in test [6], 2.64 µM. Also, the GI50 in test [7] was 4.99 µM; in [8], 5.83 µM; in test [9], 5.15 µM; in [10], 2.25 µM. In addition, the TGI in [1] is 19.2 µM; in [2], 24.2 µM; in test [3], 13.9 µM; in test [4] it was 15.2 µM; in [5], 18.1 µM; in [6], 10.4 µM. Further, the TGI in [7] came out at 31.5 µM; in test [8] it was 18.5 µM; in test [9], 17.8 µM; in test [10], 8.86 µM.

With `C[C@@H](Nc1nc(N[C@H](C)C(F)(F)F)nc(-c2cccc(Cl)n2)n1)C(F)(F)F`, the GI50 in test [1] is 27.4 µM; in [2], 41.6 µM; in test [3] it was 59.4 µM; in [4], over 100 µM; in [5] it was 79.8 µM; in test [6], over 100 µM. The GI50 is over 100 µM in [7], 46.6 µM in test [8], 23.3 µM in test [9] and over 100 µM in test [10]. The TGI in test [1] was 91.4 µM; in test [2], over 100 µM; in [3], over 100 µM; in test [4], over 100 µM; in test [5], over 100 µM; in [6], over 100 µM. For the same compound, the TGI is over 100 µM in test [7], over 100 µM in [8], 63.5 µM in test [9] and over 100 µM in test [10].

Regarding `COc1ccccc1-n1cnc(N)c1C(=O)c1cc(OC)c(OC)c(OC)c1`, the GI50 in [1] was 5.41 µM; in test [2], 6.65 µM; in test [3], 4.95 µM; in [4] it was 3.36 µM; in [5], 6.39 µM; in test [6] it was 3.5 µM. The GI50 in [7] was 2.42 µM; in test [8], 5.65 µM; in test [9], 4 µM; in test [10], 1.92 µM. Moreover, the TGI in test [1], in [2], in test [3], in test [4], in test [5] and in [6] was over 100 µM throughout. The TGI in test [7] is 13.3 µM; in test [8] it was over 100 µM; in test [9], over 100 µM; in [10] it was over 100 µM.

By GI50 is commonly meant the concentration at which growth is held to half of that of the control. What is called TGI is the concentration at which net growth stops. High values mean lower sensitivity of the cells, low ones greater sensitivity of the cells.
